Data: ChEMBL document CHEMBL1201862, “PubChem BioAssay data set” (2004)
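How tested: cells in 96-well plates exposed to compound for 48 hours at five concentrations. GI50 = concentration required for 50% inhibition of growth.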 Calls of active or inactive are those of the source. Cut-off read from the data, not from the text of the source: active = GI50 up to about 1.1 µM and inactive = higher.

Assays:
Experiment in all cases: inhibition of tumour cell growth, NCI panel, 48 h
SK-MEL-28 = system: SK-MEL-28
UO-31 = system: UO-31
MOLT-4 = system: MOLT-4
SF-539 = system: SF-539
EKVX = system: EKVX
KM12 = system: KM12
SNB-75 = system: SNB-75
K562 = system: K562
UACC-257 = system: UACC-257
SN12C = system: SN12C
COLO 205 = system: COLO 205
MCF7 = system: MCF7
UACC-62 = system: UACC-62
Hs-578T = system: Hs-578T
SF-295 = system: SF-295
786-0 = system: 786-0
HCT-116 = system: HCT-116
HCC 2998 = system: HCC 2998
NCI-H23 = system: NCI-H23

SMILES	GI50 (SK-MEL-28)	GI50 (UO-31)	GI50 (MOLT-4)	GI50 (SF-539)	GI50 (EKVX)	GI50 (KM12)	GI50 (SNB-75)	GI50 (K562)	GI50 (UACC-257)	GI50 (SN12C)	GI50 (COLO 205)	GI50 (MCF7)	GI50 (UACC-62)	GI50 (Hs-578T)	GI50 (SF-295)	GI50 (786-0)	GI50 (HCT-116)	GI50 (HCC 2998)	GI50 (NCI-H23)
CC(C)C(C/C=C1\CC(CO)(COC(=O)CC(C(C)C)C(C)C)OC1=O)C(C)C (stereo unspecified)	14.9 µM (inactive)	6.87 µM (inactive)	1.05 µM (active)	18.3 µM (inactive)	10 µM (inactive)	14.2 µM (inactive)	10.4 µM (inactive)	1.36 µM (inactive)	15.6 µM (inactive)	9.1 µM (inactive)	1.49 µM (inactive)	15.7 µM (inactive)	15.1 µM (inactive)	3.8 µM (inactive)	4.62 µM (inactive)	7.03 µM (inactive)	14.1 µM (inactive)	5.96 µM (inactive)	15 µM (inactive)
CN(CCn1cnc2c1c(=O)n(C)c(=O)n2C)C1CCCCC1	> 100 µM (inactive)	> 100 µM (inactive)	> 100 µM (inactive)	> 100 µM (inactive)	> 100 µM (inactive)	> 100 µM (inactive)	> 100 µM (inactive)	> 100 µM (inactive)	> 100 µM (inactive)	> 100 µM (inactive)	> 100 µM (inactive)	> 100 µM (inactive)	> 100 µM (inactive)	> 100 µM (inactive)	> 100 µM (inactive)	> 100 µM (inactive)	> 100 µM (inactive)	> 100 µM (inactive)	> 100 µM (inactive)
CC(C)C1=C(O)C(=O)C2=C(C1=O)C(O)CC1C(C)(C)CCCC21C (stereo unspecified)	13.3 µM (inactive)	5.09 µM (inactive)	25.8 µM (inactive)	16.9 µM (inactive)	6.56 µM (inactive)	5.45 µM (inactive)	30.2 µM (inactive)	6.56 µM (inactive)	11.3 µM (inactive)	7.26 µM (inactive)	12.8 µM (inactive)	5.87 µM (inactive)	2.67 µM (inactive)	3.88 µM (inactive)	21.7 µM (inactive)	9.2 µM (inactive)	4.26 µM (inactive)	3.58 µM (inactive)	1.79 µM (inactive)
CC1CCN(c2nnc(Cl)cc2C(=O)c2ccccc2)CC1	39.3 µM (inactive)	23.1 µM (inactive)	20.7 µM (inactive)	25.4 µM (inactive)	29.8 µM (inactive)	18 µM (inactive)	27.5 µM (inactive)	53 µM (inactive)	18.7 µM (inactive)	50.7 µM (inactive)	21.9 µM (inactive)	19.4 µM (inactive)	26.8 µM (inactive)	20 µM (inactive)	24.7 µM (inactive)	41.7 µM (inactive)	29.6 µM (inactive)	30.5 µM (inactive)	25.5 µM (inactive)
CN(C)c1ccc(/C=C(\NC(=O)c2ccccc2)C(=O)Nc2ccccc2C(=O)NN2C(=O)CSC2c2ccc(N(C)C)cc2)cc1 (stereo unspecified)	> 100 µM (inactive)	> 100 µM (inactive)	> 100 µM (inactive)	79.8 µM (inactive)	> 100 µM (inactive)	> 100 µM (inactive)	> 100 µM (inactive)	33.3 µM (inactive)	16.1 µM (inactive)	> 100 µM (inactive)	> 100 µM (inactive)	> 100 µM (inactive)	> 100 µM (inactive)	> 100 µM (inactive)	> 100 µM (inactive)	80.2 µM (inactive)	> 100 µM (inactive)	6.37 µM (inactive)	> 100 µM (inactive)
Cc1ccc(C2=Nc3cc(C)c(Cl)cc3S(=O)(=O)NN2)cc1	> 100 µM (inactive)	> 100 µM (inactive)	37.9 µM (inactive)	> 100 µM (inactive)	> 100 µM (inactive)	> 100 µM (inactive)	> 100 µM (inactive)	36.3 µM (inactive)	> 100 µM (inactive)	> 100 µM (inactive)	> 100 µM (inactive)	> 100 µM (inactive)	56.9 µM (inactive)	> 100 µM (inactive)	> 100 µM (inactive)	58.1 µM (inactive)	> 100 µM (inactive)	> 100 µM (inactive)	> 100 µM (inactive)
CCOC(=O)c1cc(Br)c(-c2onc(C)c2Br)n1C	> 100 µM (inactive)	45.9 µM (inactive)	15 µM (inactive)	> 100 µM (inactive)	6.08 µM (inactive)	21.8 µM (inactive)	18.1 µM (inactive)	30.5 µM (inactive)	44.7 µM (inactive)	23.1 µM (inactive)	28.4 µM (inactive)	23.6 µM (inactive)	27.9 µM (inactive)	10.8 µM (inactive)	23.9 µM (inactive)	25.9 µM (inactive)	18.9 µM (inactive)	85.9 µM (inactive)	47.8 µM (inactive)
C=CCn1c(-c2ccc(Cl)cc2Cl)cs/c1=N\c1c(C)n(C)n(-c2ccccc2)c1=O	13 µM (inactive)	11.5 µM (inactive)	4.32 µM (inactive)	14.8 µM (inactive)	3.54 µM (inactive)	13.5 µM (inactive)	8.47 µM (inactive)	2.51 µM (inactive)	7.05 µM (inactive)	13.4 µM (inactive)	12.3 µM (inactive)	9.14 µM (inactive)	10.4 µM (inactive)	16.1 µM (inactive)	6.9 µM (inactive)	13.1 µM (inactive)	7.24 µM (inactive)	15.3 µM (inactive)	9.82 µM (inactive)
CC(C)C(Cl)CCC(C)(Cl)C(=O)CBr (stereo unspecified)	5.01 µM (inactive)	5.98 µM (inactive)	0.418 µM (active)	16.9 µM (inactive)	18.2 µM (inactive)	14.5 µM (inactive)	16.1 µM (inactive)	1.02 µM (active)	3.79 µM (inactive)	14.5 µM (inactive)	3.4 µM (inactive)	2.37 µM (inactive)	2.77 µM (inactive)	5.73 µM (inactive)	19.3 µM (inactive)	3.96 µM (inactive)	3.03 µM (inactive)	18.5 µM (inactive)	5.5 µM (inactive)
COc1cc(C(N)=O)cc(NC(=O)/C=C/c2ccccc2)c1OC	> 100 µM (inactive)	> 100 µM (inactive)	> 100 µM (inactive)	83 µM (inactive)	89.7 µM (inactive)	> 100 µM (inactive)	19.7 µM (inactive)	> 100 µM (inactive)	> 100 µM (inactive)	> 100 µM (inactive)	> 100 µM (inactive)	> 100 µM (inactive)	> 100 µM (inactive)	> 100 µM (inactive)	59.6 µM (inactive)	> 100 µM (inactive)	> 100 µM (inactive)	> 100 µM (inactive)	> 100 µM (inactive)
N=C1/C(=C/c2ccccc2)C(=O)N=C2SC=NN12	> 100 µM (inactive)	> 100 µM (inactive)	> 100 µM (inactive)	29.7 µM (inactive)	> 100 µM (inactive)	> 100 µM (inactive)	> 100 µM (inactive)	> 100 µM (inactive)	> 100 µM (inactive)	> 100 µM (inactive)	> 100 µM (inactive)	> 100 µM (inactive)	> 100 µM (inactive)	> 100 µM (inactive)	> 100 µM (inactive)	> 100 µM (inactive)	> 100 µM (inactive)	> 100 µM (inactive)	> 100 µM (inactive)
CC(=O)OCC(=O)O[C@@H]1[C@H]2[C@@H](OC(=O)c3ccccc3)[C@@H](C)C[C@]2(O)[C@H](OC(C)=O)[C@@]2(C)C[C@]1(OC(C)=O)C[C@H]1C(=O)C(C)(C)[C@@H](OC(C)=O)[C@@H]12	> 25 µM (inactive)	0.912 µM (active)	> 5.14 µM (inactive)	> 25 µM (inactive)	24.8 µM (inactive)	> 25 µM (inactive)	7.71 µM (inactive)	1.48 µM (inactive)	> 25 µM (inactive)	> 25 µM (inactive)	4.75 µM (inactive)	> 25 µM (inactive)	> 25 µM (inactive)	9.55 µM (inactive)	6.01 µM (inactive)	> 20 µM (inactive)	> 25 µM (inactive)	9.38 µM (inactive)	> 25 µM (inactive)
Cc1cn(CCCCCOC(=O)NC(CCCNC(=N)N)C(=O)O)c(=O)[nH]c1=O (stereo unspecified)	76.4 µM (inactive)	> 100 µM (inactive)	35.6 µM (inactive)	45.7 µM (inactive)	40.3 µM (inactive)	19 µM (inactive)	31.6 µM (inactive)	16.1 µM (inactive)	> 100 µM (inactive)	56.8 µM (inactive)	26.1 µM (inactive)	54.7 µM (inactive)	26.7 µM (inactive)	15.5 µM (inactive)	28.2 µM (inactive)	39.4 µM (inactive)	37.6 µM (inactive)	35.7 µM (inactive)	40.2 µM (inactive)
O=C(c1ccc2ccccc2c1)N(Cc1cccnc1)C(=S)N(Cc1cccnc1)C(=O)c1ccc2ccccc2c1	36.9 µM (inactive)	28.6 µM (inactive)	41.3 µM (inactive)	40 µM (inactive)	22.8 µM (inactive)	22 µM (inactive)	24.9 µM (inactive)	41.6 µM (inactive)	19.5 µM (inactive)	64 µM (inactive)	29.2 µM (inactive)	32.7 µM (inactive)	26 µM (inactive)	49.9 µM (inactive)	34.7 µM (inactive)	25.2 µM (inactive)	35.7 µM (inactive)	16.5 µM (inactive)	23.1 µM (inactive)
